Assay results reported in US7884129B2, “Composition comprising the alcohol compound isolated from the extract of cucurbitaceae family plant having anti-adipogenic and anti-obesity activity” (Helixir Co., Ltd., priority 2003, dated 2011).

Assays:
Preadipocytes (3T3-L1) = test: Inhibition of adipocyte differentiation and triglyceride level (Oil Red O staining); type: cell-based
Method: To determine the inhibiting activity of the compound prepared by Examples 1, i.e., dehydrodiconiferylalcohol (DHCA), on the adipocytes differentiation and triglyceride level, following experiment was performed.
Preadipocytes (3T3-L1) purchased from ATCC (American […], USA) were cultured in RPMI medium containing 10% FBS and MDI cocktail (isobutylmethylxanthine, dexamethasone, insulin) was added thereto for differentiating into mature adipocytes. After two days, the medium was replaced and treated with only insulin. Thereafter, the medium was replaced and equal concentration of insulin was treated again every other day. DHCA ranging from 10 to 1000 ug/ml of the concentrations was treated when the adipocyte differentiation was induced and equal concentration of the DHCA was treated at every replacement of the medium. Troglitazone (Sigma Co.) and 10 uM SB203580 (Sigma Co.) were treated as control groups and 0.01% ethanol was used as a vehicle control. After eight days lapsed, the accumulated fat within differentiated cell was stained with Oil Red 0 staining reagent and the absorbance was determined with optical density qualitatively at 490 nm. The inhibition percentage (%) was calculated by following Empirical Formula 1. The Inhibition Percentage (%)=[O.D. of test group]/[O.D. value of control group]×100 Empirical Formula 1

PPAR α = biological target: T1, PPAR α (Homo sapiens, UniProt Q07869); test: PPAR α activation, tkPPRE-luciferase reporter in transfected CV-1 cells; type: cell-based; details: 24 hours
T1 construct: expressed in transfected cells; host or cells: CV-1 cells
T1 sequence (Q07869 1-468): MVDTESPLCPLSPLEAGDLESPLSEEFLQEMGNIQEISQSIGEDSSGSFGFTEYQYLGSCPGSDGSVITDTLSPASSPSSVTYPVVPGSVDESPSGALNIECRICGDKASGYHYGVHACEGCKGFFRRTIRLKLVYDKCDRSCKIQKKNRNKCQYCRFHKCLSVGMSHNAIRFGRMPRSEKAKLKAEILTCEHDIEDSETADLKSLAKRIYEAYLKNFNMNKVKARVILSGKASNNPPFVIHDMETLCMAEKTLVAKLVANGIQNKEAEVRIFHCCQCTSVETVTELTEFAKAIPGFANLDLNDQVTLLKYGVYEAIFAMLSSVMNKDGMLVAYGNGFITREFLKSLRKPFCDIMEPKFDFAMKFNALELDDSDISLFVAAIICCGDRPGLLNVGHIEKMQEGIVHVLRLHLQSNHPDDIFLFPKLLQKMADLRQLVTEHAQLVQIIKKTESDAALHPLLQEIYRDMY
T1 sequence (P19793 1-462 partner): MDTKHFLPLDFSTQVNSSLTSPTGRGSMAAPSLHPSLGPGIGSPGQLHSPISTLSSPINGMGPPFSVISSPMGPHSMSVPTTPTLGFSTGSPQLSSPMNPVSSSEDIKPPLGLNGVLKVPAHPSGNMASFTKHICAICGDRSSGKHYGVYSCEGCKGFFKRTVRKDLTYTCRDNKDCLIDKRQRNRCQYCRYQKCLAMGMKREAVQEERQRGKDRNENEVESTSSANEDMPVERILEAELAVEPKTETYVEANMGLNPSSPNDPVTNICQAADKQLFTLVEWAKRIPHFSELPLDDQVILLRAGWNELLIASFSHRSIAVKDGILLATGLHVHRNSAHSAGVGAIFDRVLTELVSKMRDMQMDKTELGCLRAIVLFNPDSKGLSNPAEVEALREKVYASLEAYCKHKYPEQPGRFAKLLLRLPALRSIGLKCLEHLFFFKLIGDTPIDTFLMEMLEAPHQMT
Method: To determine the regulating activity of the compound prepared by Example 1 on the PPAR α activation, following experiment was performed.
CV-1 cells were transiently cotransfected with both tkPPRE-luciferase and pCMV-PPAR α, together with pCMV-RXR and pCMV-β-Gal as a transfection control. Cells were treated with DHCA or various fractions, i.e. hexane and ethylacetate fractions obtained from this Cucurbitaceae family plant extract at the concentration of 100 ug/ml. Cells were also treated with DMSO or fenofibrate (100 uM, Sigma Co.), which is a well known agonist of PPARα. After 24 hours, cell lysates were prepared for the luciferase assay, and the activities were normalized to β-Gal activities.

increase of luciferase activity as compared with control (PPAR α; 100 ug/ml, normalized to β-Gal): 10 folds
Compound: COc1cc(C2Oc3c(OC)cc(/C=C/CO)cc3C2CO)ccc1O (stereo not shown) [DHCA, dehydrodiconiferyl alcohol]
anti-adipogenic activity compared with SB203580 (Preadipocytes (3T3-L1); 3T3-L1, SB203580 10 uM as control): comparable to that of SB203580
level of produced triglycerides and adipocytes differentiation (Preadipocytes (3T3-L1); 3T3-L1 induced with MDI, 8 days, Oil Red O, O.D. 490 nm, DHCA 10 to 1000 ug/ml): significantly reduced in a dose dependent manner
magnitude of PPAR α activation compared with fenofibrate (PPAR α; DHCA 100 ug/ml vs fenofibrate 100 uM): higher than that of fenofibrate treated cells
